From US20220202783A1, “Use Of ADAM9 Inhibitor As Immunomodulator” (China Medical University, priority 2019, published 2022)
pIC50: −log10 of the molar value.

Legend:
Type in all cases: cell-based
[1] = cytotoxicity assay in 293 cells; design: key to effect of inhibiting tumor cell growth: “+” represents that the compound has the effect of inhibiting tumor cell growth; settings: 293
[2] = tested on: kidney cancer cells (293); experiment: cytotoxicity assay in 293 cells; design: key to effect of inhibiting tumor cell growth: “+” represents that the compound has the effect of inhibiting tumor cell growth; settings: Homo sapiens, HEK293
[3] = cytotoxicity assay in HNOF cells; design: key to effect of inhibiting tumor cell growth: “+” represents that the compound has the effect of inhibiting tumor cell growth; settings: human, HNOF cells
[4] = tested on: HNOF; experiment: cytotoxicity assay in HNOF cells; design: key to effect of inhibiting tumor cell growth: “+” represents that the compound has the effect of inhibiting tumor cell growth; settings: HNOF
[5] = tested on: lung cancer cells (A549); experiment: cytotoxicity assay in A549 cells; design: key to effect of inhibiting tumor cell growth: “+” represents that the compound has the effect of inhibiting tumor cell growth; settings: for pIC50: Homo sapiens
Method: (§1) Please refer to FIG. 1A, FIG. 1B and Table 2, which show the analysis results of the compound of Formula (I) inhibiting ADAM9 activity. In FIG. 1A, Bm7 lung cancer cells were treated with the derivatives of the compound 6X-0310, and then cultured under anchorage-free culture condition. The expressions of ADAM9 and CDCP1 in Bm7 lung cancer cells were detected by Western blot, in which EF1α is an internal control, and mock represents Bm7 lung cancer cells without treatment. […] In the experiment, the compounds of Formula (I) of Example 1 to Example 32 were further performed cytotoxicity assay to measure the IC50 value of the compounds of Formula (I) of the present disclosure in lung cancer cell lines.

[6] = tested on: lung cancer cells (H1299); experiment: cytotoxicity assay in H1299 cells; design: key to effect of inhibiting tumor cell growth: “+” represents that the compound has the effect of inhibiting tumor cell growth; settings: for effect of inhibiting tumor cell growth: H1299; for pIC50: Homo sapiens, NCI-H1299
Method: as §1

[7] = tested on: lung cancer cells (TC1); experiment: cytotoxicity assay in TC1 cells; design: key to effect of inhibiting tumor cell growth: “+” represents that the compound has the effect of inhibiting tumor cell growth; settings: for pIC50: TC-1
Method: as §1

[8] = tested on: lung cancer cells (Bm7brmx2); experiment: cytotoxicity assay in Bm7brmx2 cells; design: key to effect of inhibiting tumor cell growth: “+” represents that the compound has the effect of inhibiting tumor cell growth
Method: as §1

[9] = tested on: lung cancer cells (Bm7brmx2-1st); experiment: cytotoxicity assay in Bm7brmx2-1st cells; design: key to effect of inhibiting tumor cell growth: “+” represents that the compound has the effect of inhibiting tumor cell growth
Method: as §1

[10] = tested on: lung cancer cells (Bm7brmx2-2nd); experiment: cytotoxicity assay in Bm7brmx2-2nd cells; design: key to effect of inhibiting tumor cell growth: “+” represents that the compound has the effect of inhibiting tumor cell growth
Method: as §1

[11] = tested on: CDCP1 in Bm7 lung cancer cells; experiment: Western blot of ADAM9 and CDCP1 expression in Bm7 cells; settings: anchorage-free culture
Method: as §1

[12] = tested on: Bm7 lung cancer cells; experiment: cytotoxicity assay, FIG. 1B and Table 2 summary
Method: as §1

SMILES	effect of inhibiting tumor cell growth [1]	pIC50 [2]	pIC50 [3]	effect of inhibiting tumor cell growth [4]	effect of inhibiting tumor cell growth [5]	pIC50 [5]	effect of inhibiting tumor cell growth [6]	pIC50 [6]	effect of inhibiting tumor cell growth [7]	pIC50 [7]	pIC50 [8]	effect of inhibiting tumor cell growth [8]	pIC50 [9]	effect of inhibiting tumor cell growth [9]	pIC50 [10]	effect of inhibiting tumor cell growth [10]	expression of CDCP1 [11]	tumor cell cytotoxicity compared with the core structure compound 6X-0310 [12]
N#C/C(=C\c1ccc(OCc2cccc(C(F)(F)F)c2)cc1)c1nc(CCN2C(=O)c3ccccc3C2=O)cs1 [6X-0310]	+	4.23	3.85	+	+	3.70	+	3.94	+	3.96	3.76	+	4.26	+	3.60	+	reduce the expression of CDCP1	
O=C1c2ccccc2C(=O)N1CCc1csc(COc2ccccc2Cl)n1 [12W-0264]	+	4.22	< 3.90	+	+	3.79	+	3.86	+	4.05	4.00	+	4.39	+	3.82	+	reduce the expression of CDCP1	stronger tumor cell cytotoxicity
O=C1c2ccccc2C(=O)N1CCc1csc(-c2nc(CCN3C(=O)c4ccccc4C3=O)cs2)n1 [12W-0290]	+	4.16	3.83	+	+	< 3.90	+	3.80	+	3.40	3.07	+	4.07	+	2.40	+		
CSc1ccc(/C=C(/C#N)c2nc(CCN3C(=O)c4ccccc4C3=O)cs2)cc1 [4X-0296]	+	4.10	4.02	+	+	3.78	+	4.02	+	4.13	4.04	+	4.41	+	3.35	+	reduce the expression of CDCP1	stronger tumor cell cytotoxicity
N#C/C(=C\c1ccccc1Oc1ccc(Cl)cc1Cl)c1nc(CCN2C(=O)c3ccccc3C2=O)cs1 [4X-0312]	+	3.87	3.58	+	+	3.19	+	3.92	+	3.87	3.52	+	4.20	+	3.31	+		
Cc1ccc(-c2nc(CCN3C(=O)c4ccccc4C3=O)cs2)cc1 [12W-0274]	+	4.66	3.90	+	+	< 3.90	+	3.69	+	3.79	3.04	+	4.09	+	3.33	+		
N#C/C(=C/c1cc([N+](=O)O)ccc1Sc1ccccn1)c1nc(CCN2C(=O)c3ccccc3C2=O)cs1 [6X-0229]	+	3.88	3.84	+	+	3.96	+	3.77	+	3.78	3.43	+	4.25	+	3.95	+		
CC(C)CN1CCCc2cc(/C=C(\C#N)c3nc(CCN4C(=O)c5ccccc5C4=O)cs3)ccc21 [4X-0311]	+	4.20	4.09	+	+	3.62	+	< 3.90	+	3.46	4.22	+	4.46	+	4.06	+		
N#C/C(=C/c1cccc(C(F)(F)F)c1)c1nc(CCN2C(=O)c3ccccc3C2=O)cs1 [4X-0302]	+	4.25	3.82	+	+	3.94	+	3.72	+	3.90	3.07	+	3.28	+	3.36	+		
COc1ccc(C(=O)Nc2nc(CCN3C(=O)c4ccccc4C3=O)cs2)cc1OC [5X-0314]	+	4.31	4.07	+	+	3.74	+	3.94	+	3.69	4.18	+	4.29	+	4.04	+		
N#C/C(=C\c1cccc2ccccc12)c1nc(CCN2C(=O)c3ccccc3C2=O)cs1 [6X-0309]	+	4.09	3.94	+	+	< 3.90	+	4.03	+	4.05	4.05	+	3.20	+	3.41	+		
O=C1c2ccccc2C(=O)N1CCc1csc(-c2cccc(F)c2)n1 [12W-0275]	+	3.96	3.89	+	+	3.70	+	3.81	+	3.99	3.67	+	4.01	+	3.36	+		
